The results in this text go back to patent US20090163586A1, “Bis-(Sulfonylamino) Derivatives in Therapy 205” (AstraZeneca AB, priority 2007, published 2009).

By IC50 is commonly meant the concentration that inhibits the measured activity by half. Lower therefore signals greater potency in that assay.

The experiment concerns the target T1, human mPGES-1 (Homo sapiens, UniProt O14684).
T1 sequence (O14684 1-152): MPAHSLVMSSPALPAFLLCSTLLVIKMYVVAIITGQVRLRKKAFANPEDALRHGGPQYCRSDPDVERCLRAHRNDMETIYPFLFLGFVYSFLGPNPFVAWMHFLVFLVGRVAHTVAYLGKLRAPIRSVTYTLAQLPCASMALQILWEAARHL
The experiment can be described thus: Microsomal prostaglandin E synthase biochemical assay. To be noted: microsome preparation containing human mPGES-1; PGH2 10.8 μM, GSH 2.5 mM, pH 6.8; PGE2 by HTRF; average of at least n=2. Here is the method: Compounds were tested as inhibitors of microsomal prostaglandin E synthase activity in microsomal prostaglandin E synthase assays and whole cell assays. These assays measure prostaglandin E2 (PGE2) synthesis which is taken as a measure of prostaglandin E synthase activity. Microsomal prostaglandin E synthase biochemical assays used microsomal prostaglandin E synthase-1 in microsomal preparations. The source of the microsomes can be for example interleukin-1β-stimulated human A549 cells (which express human mPGES-1) or Sf9 cells transfected with plasmids encoding human mPGES-1 cDNA. The whole blood assay [described by Patrignani, P. et al., Journal of Pharmacology and Experimental Therapeutics, 1994, vol. 271, pp 1705-1712] was used as the whole cell assay for testing the compounds. Whole blood provides a protein and cell rich milieu for the study of biochemical efficacy of anti-inflammatory compounds such as prostaglandin synthase inhibitors. To study the inhibitory activities of these compounds, human blood was stimulated with lipopolysaccharide (LPS) for typically 16 hours to induce mPGES-1 expression, after which the concentration of produced PGE2 was measured by competitive-immuno assay (homogeneous time-resolved fluorescence, HTRF) as read out for effectiveness against mPGES-1-dependent PGE2 production.
Microsomal Prostaglandin E Synthase Biochemical Assay
A solution of test compound was added to a diluted microsome preparation containing human mPGES-1 and pre-incubated for 15 minutes in potassium phosphate buffer pH 6.8 with cofactor glutathione (GSH). Corresponding solutions without test compound were used as positive controls, and corresponding solutions without test compound and without microsomes were used as negative controls. The enzymatic reaction was then started by addition of the substrate PGH2 in an organic solution (dry acetonitrile).
The typical reaction conditions of the enzymatic reaction were thus: Test compound: ranging from 60 μM to 0.002 μM, or zero in positive and negative controls; potassium phosphate buffer pH 6.8: 50 mM; GSH: 2.5 mM; mPGES-1-containing microsomes: 2 μg/mL (sample and positive controls) or 0 μg/mL (negative control); PGH2: 10.8 μM; Acetonitrile: 7.7% (v/v); DMSO: 0.6% (v/v). The reaction was stopped after one minute by adding an acidic solution (pH 1.9) of ferric chloride and citrate (final concentrations 7 mM and 47 mM respectively), by which the PGH2 was sequestered (the PGH2 is reduced to mainly 12-hydroxy heptadecatrineoic acid (12-HHT) which is not detected by the subsequent PGE2 detection step). The resulting solution was then pH neutralized by addition of potassium phosphate buffer, prior to diluting an aliquot of the resulting solution in a weak potassium phosphate buffer (50 mM, pH 6.8) containing 0.2% BSA (w/v). [Adapted from Jacobsson et al., Proc. Natl. Acad. Sci. USA, 1999, vol. 96, pp. 7220-7225]The PGE2 formed was quantified by use of a commercial HTRF based kit (catalogue #62PG2PEC or #62P2APEC from Cisbio International). 100% activity was defined as the PGE2 production in positive controls subtracted by the PGE2 production in the negative controls. IC50 values were then determined using standard procedures.
The potency is expressed as IC50 and the value indicated is an average of at least n=2.
In general terms: TR-FRET usually uses a lanthanide donor and a delayed reading to cut background.

For the molecule `NS(=O)(=O)c1ccccc1NS(=O)(=O)CCc1ccc(-c2cc3ccccc3o2)cc1` [Example 1, 2-[2-(4-Benzofuran-2-ylphenyl)ethylsulfonylamino]benzenesulfonamide], the half-inhibitory concentration (IC50) stood at 130 nM. The value for `NS(=O)(=O)c1ccccc1NS(=O)(=O)CCc1ccc(C2Cc3ccccc3O2)cc1` (stereo not shown) [Example 2, 2-[2-[4-(2,3-Dihydrobenzofuran-2-yl)phenyl]ethylsulfonylamino]benzenesulfonamide] was 270 nM. `NS(=O)(=O)c1ccccc1NS(=O)(=O)/C=C/c1ccc(-c2cc3ccccc3o2)cc1` [Example 3, 2-[[(E)-2-(4-Benzofuran-2-ylphenyl)ethenyl]sulfonylamino]benzenesulfonamide] returned a half-maximal inhibitory concentration (IC50) of 140 nM. Under `NS(=O)(=O)c1cc(F)ccc1NS(=O)(=O)/C=C/c1ccc(-c2cc3ccccc3o2)cc1` [Example 4, 2-[[(E)-2-(4-Benzofuran-2-ylphenyl)ethenyl]sulfonylamino]-5-fluoro-benzenesulfonamide] stands 79 nM; under `NS(=O)(=O)c1ccc(F)cc1NS(=O)(=O)/C=C/c1ccc(-c2cc3ccccc3o2)cc1` [Example 5, 2-[[(E)-2-(4-Benzofuran-2-ylphenyl)ethenyl]sulfonylamino]-4-fluoro-benzenesulfonamide], 40 nM; under `NS(=O)(=O)c1c(F)cccc1NS(=O)(=O)/C=C/c1ccc(-c2cc3ccccc3o2)cc1` [Example 6, 2-[[(E)-2-(4-Benzofuran-2-ylphenyl)ethenyl]sulfonylamino]-6-fluoro-benzenesulfonamide], 74 nM. For `CC(Cc1ccc(Cl)cc1)S(=O)(=O)Nc1ccccc1S(N)(=O)=O` (stereo not shown) [Example 7, 2-[1-(4-Chlorophenyl)propan-2-ylsulfonylamino]benzenesulfonamide], it took 280 nM to reach half-maximal inhibition (IC50). Consider `CC(Cc1ccccc1)S(=O)(=O)Nc1ccccc1S(N)(=O)=O` (stereo not shown) [Example 8, 2-(1-Phenylpropan-2-ylsulfonylamino)benzenesulfonamide], for which the IC50 came to 2200 nM. In turn, `C/C(=C\c1ccc(Cl)cc1)S(=O)(=O)Nc1ccccc1S(N)(=O)=O` [Example 9, 2-[[(E)-1-(4-Chlorophenyl)prop-1-en-2-yl]sulfonylamino]benzenesulfonamide] yielded an IC50 of 610 nM. In turn, `CC(Cc1ccc(Cl)cc1)S(=O)(=O)Nc1cc(F)ccc1S(N)(=O)=O` (stereo not shown) [Example 10, 2-[1-(4-Chlorophenyl)propan-2-ylsulfonylamino]-4-fluoro-benzenesulfonamide] gave an IC50 of 450 nM.

In turn, `C/C(=C\c1ccc(Cl)cc1)S(=O)(=O)Nc1cc(F)ccc1S(N)(=O)=O` [Example 11, 2-[[(E)-1-(4-chlorophenyl)prop-1-en-2-yl]sulfonylamino]-4-fluoro-benzenesulfonamide] came in with an IC50 of 590 nM. The molecule `C/C(=C\c1ccc(Cl)cc1)S(=O)(=O)Nc1ccc(F)cc1S(N)(=O)=O` [Example 12, 2-[[(E)-1-(4-Chlorophenyl)prop-1-en-2-yl]sulfonylamino]-5-fluoro-benzenesulfonamide] came in with a half-inhibitory concentration (IC50) of 1000 nM. The value for `C/C(=C\c1ccc(Cl)cc1)S(=O)(=O)Nc1cccc(F)c1S(N)(=O)=O` [Example 13, 2-[[(E)-1-(4-Chlorophenyl)prop-1-en-2-yl]sulfonylamino]-6-fluoro-benzenesulfonamide] was 520 nM; that for `C/C(=C\c1ccc(Cl)cc1)S(=O)(=O)Nc1c(F)cccc1S(N)(=O)=O` [Example 14, 2-[[(E)-1-(4-Chlorophenyl)prop-1-en-2-yl]sulfonylamino]-3-fluoro-benzenesulfonamide] was 3100 nM. In the case of `C/C(=C\c1ccc(Cl)cc1)S(=O)(=O)Nc1ccc(C)cc1S(N)(=O)=O` [Example 15, 2-[[(E)-1-(4-Chlorophenyl)prop-1-en-2-yl]sulfonylamino]-5-methyl-benzenesulfonamide], the IC50 was determined as 7600 nM.

`NS(=O)(=O)c1ccccc1NS(=O)(=O)CCc1ccc(-c2ccco2)cc1` [Example 16, 2-[2-[4-(2-Furyl)phenyl]ethylsulfonylamino]benzenesulfonamide] showed an IC50 of 190 nM. Under `NS(=O)(=O)c1ccccc1NS(=O)(=O)CCc1ccc(C2CCCO2)cc1` (stereo not shown) [Example 17, 2-[2-[4-(Oxolan-2-yl)phenyl]ethylsulfonylamino]benzenesulfonamide] stands 5300 nM; under `NS(=O)(=O)c1ccccc1NS(=O)(=O)/C=C/c1ccc(-c2ccco2)cc1` [Example 18, 2-[[(E)-2-[4-(2-Furyl)phenyl]ethenyl]sulfonylamino]benzenesulfonamide], 44 nM; under `NS(=O)(=O)c1ccccc1NS(=O)(=O)CCc1ccc(OC(F)F)cc1` [Example 19, 2-[2-[4-(Difluoromethoxy)phenyl]ethylsulfonylamino]benzenesulfonamide], 1400 nM. Turning to `NS(=O)(=O)c1ccccc1NS(=O)(=O)/C=C/c1ccc(OC(F)F)cc1` [Example 20, 2-[[(E)-2-[4-(Difluoromethoxy)phenyl]ethenyl]sulfonylamino]benzenesulfonamide], the IC50 is 700 nM. For `NS(=O)(=O)c1cc(F)ccc1NS(=O)(=O)CCc1ccc(Cl)cc1` [Example 21, 2-[2-(4-Chlorophenyl)ethylsulfonylamino]-5-fluoro-benzenesulfonamide], the IC50 is 320 nM.

Regarding `NS(=O)(=O)c1cc(F)ccc1NS(=O)(=O)/C=C/c1ccc(Cl)cc1` [Example 22, 2-[[(E)-2-(4-Chlorophenyl)ethenyl]sulfonylamino]-5-fluoro-benzenesulfonamide], the IC50 came out at 430 nM. The value for `NS(=O)(=O)c1ccc(F)cc1NS(=O)(=O)/C=C/c1ccc(Cl)c(Cl)c1` [Example 23, 2-[[(E)-2-(3,4-Dichlorophenyl)ethenyl]sulfonylamino]-4-fluoro-benzenesulfonamide] was 270 nM; that for `NS(=O)(=O)c1cc(F)ccc1NS(=O)(=O)/C=C/c1ccc(Cl)c(Cl)c1` [Example 24, 2-[[(E)-2-(3,4-Dichlorophenyl)ethenyl]sulfonylamino]-5-fluoro-benzenesulfonamide] was 300 nM; that for `NS(=O)(=O)c1c(F)cccc1NS(=O)(=O)/C=C/c1ccc(Cl)c(Cl)c1` [Example 25, 2-[[(E)-2-(3,4-Dichlorophenyl)ethenyl]sulfonylamino]-6-fluoro-benzenesulfonamide] was 77 nM. The molecule `COc1ccc(Br)cc1/C=C/S(=O)(=O)Nc1cc(F)ccc1S(N)(=O)=O` [Example 26, 2-[[(E)-2-(5-Bromo-2-methoxy-phenyl)ethenyl]sulfonylamino]-4-fluoro-benzenesulfonamide] gave an IC50 of 420 nM. Consider `COc1ccc(Br)cc1/C=C/S(=O)(=O)Nc1ccc(F)cc1S(N)(=O)=O` [Example 27, 2-[[(E)-2-(5-Bromo-2-methoxy-phenyl)ethenyl]sulfonylamino]-5-fluoro-benzenesulfonamide], for which 270 nM corresponded to half-maximal inhibition (IC50).

On to `COc1ccc(Br)cc1/C=C/S(=O)(=O)Nc1cccc(F)c1S(N)(=O)=O` [Example 28, 2-[[(E)-2-(5-Bromo-2-methoxy-phenyl)ethenyl]sulfonylamino]-6-fluoro-benzenesulfonamide], for which inhibition was half-maximal at 290 nM (IC50). Under `COc1ccc(Br)cc1/C=C/S(=O)(=O)Nc1ccccc1S(N)(=O)=O` [Example 29, 2-[[(E)-2-(5-Bromo-2-methoxy-phenyl)ethenyl]sulfonylamino]benzenesulfonamide] stands 280 nM; under `N#Cc1ccc(/C=C/S(=O)(=O)Nc2cc(F)ccc2S(N)(=O)=O)cc1` [Example 30, 2-[[(E)-2-(4-Cyanophenyl)ethenyl]sulfonylamino]-4-fluoro-benzenesulfonamide], 5900 nM; under `N#Cc1ccc(/C=C/S(=O)(=O)Nc2ccc(F)cc2S(N)(=O)=O)cc1` [Example 31, 2-[[(E)-2-(4-Cyanophenyl)ethenyl]sulfonylamino]-5-fluoro-benzenesulfonamide], 5700 nM.
